According to US8735364B2, “Antisense modulation of apolipoprotein B expression” (Genzyme Corporation, priority 2001, dated 2014):

Legend:
Format in all cases: in vivo, mouse
[1] = Serum cholesterol and triglyceride levels, high fat fed mice, 6 week study; settings: for Percent Inhibition of cholesterol levels: normalized to saline; for triglycerides / serum cholesterol: study end; for triglycerides: control 115 mg/dL; for serum cholesterol: control 240 mg/dL
Procedure: (§1) Male C57BL/6 mice (n=8) receiving a high fat diet (60% kcal fat) were evaluated over the course of 6 weeks for the effects of treatment with the antisense oligonucleotide, ISIS 147764. Control animals received saline treatment (50 mg/kg). A subset of animals received a daily oral dose (20 mg/kg) atorvastatin calcium (Lipitor®, Pfizer Inc.). All mice, except atorvastatin-treated animals, were dosed intraperitoneally every three days (twice a week), after fasting overnight, with 5, 25, 50 mg/kg ISIS 147764 (SEQ ID No: 109) or saline (50 mg/kg) for six weeks. Serum cholesterol and lipoproteins were analyzed at 0, 2 and 6 week interim timepoints. At study termination, animals were sacrificed 48 hours after the final injections and evaluated for levels of target mRNA levels in liver, cholesterol, lipoprotein, triglyceride, liver enzyme (AST and ALT) and serum glucose levels as well as body, liver, spleen and fat pad weights.
(§2) Male C57BL/6 mice (n=8) receiving a high fat diet (60% kcal fat) were evaluated over the course of 6 weeks for the effects of ISIS 147764 on serum cholesterol and triglyceride levels. Control animals received saline treatment (50 mg/kg). Mice were dosed intraperitoneally every three days (twice a week), after fasting overnight, with 5, 25, 50 mg/kg ISIS 147764 (SEQ ID No: 109) or saline (50 mg/kg) for six weeks.
Values in the table are expressed as percent inhibition and are normalized to the saline control.
In addition to serum cholesterol, at study termination, animals were sacrificed 48 hours after the final injections and evaluated for triglyceride levels.

[2] = Lipoprotein (VLDL, LDL, HDL) levels, high fat fed mice, 6 week study; settings: for HDL Percent Inhibition / LDL Percent Inhibition / VLDL Percent Inhibition: negative = increase
Procedure: as §1
as §2, with “lipoprotein (VLDL, LDL” for “serum cholesterol”, “HDL)” for “triglyceride”
Values in the table are expressed as percent inhibition and are normalized to the saline control. Negative values indicate an observed increase in lipoprotein levels.

[3] = Liver enzyme levels in ApoE knockout mice; settings: for Liver Enzyme Levels AST: Control 55; for Liver Enzyme Levels ALT: Control 56
Excerpt: Female ApoE knockout mice ranged in age from 5 to 7 weeks and were placed on a normal diet for 2 weeks before study initiation. ApoE knockout mice were then fed ad libitum a 60% fat diet, with 0.15% added cholesterol to induce dyslipidemia and obesity. […]
(§3) At study termination and forty eight hours after the final injections, animals were sacrificed and evaluated for target mRNA levels in liver by RT-PCR methods verified by Northern Blot analysis, glucose levels, cholesterol and lipid levels by HPLC separation methods and triglyceride and liver enzyme levels (perfomed by LabCorp Preclinical Services; San Diego, Calif.). Data are normalized to saline controls.

apolipoprotein B mRNA [4] = assay: Target mRNA levels in liver, lean vs high fat fed C57BL/6 mice; settings: 50 mg/kg i.p. every three days, six weeks
Procedure: Male C57BL/6 mice were divided into two matched groups; (1) wild-type control animals (lean animals) and (2) animals receiving a high fat diet (60% kcal fat). Control animals received saline treatment and were maintained on a normal rodent diet. After overnight fasting, mice from each group were dosed intraperitoneally every three days with saline or 50 mg/kg ISIS 147764 (SEQ ID No: 109) for six weeks. At study termination and forty eight hours after the final injections, animals were sacrificed and evaluated for target mRNA levels in liver, cholesterol and triglyceride levels, liver enzyme levels and serum glucose levels.

apolipoprotein B mRNA [5] = assay: Target mRNA levels in liver of ApoE knockout mice, RT-PCR; settings: six weeks
Procedure: Female ApoE knockout mice ranged in age from 5 to 7 weeks and were placed on a normal diet for 2 weeks before study initiation. ApoE knockout mice were then fed ad libitum a 60% fat diet, with 0.15% added cholesterol to induce dyslipidemia and obesity. Control animals were maintained on a high-fat diet with no added cholesterol After overnight fasting, mice from each group were dosed intraperitoneally every three days with saline, 50 mg/kg of a control antisense oligonucleotide (ISIS 29837 […]; SEQ ID NO. 124) or 5, 25 or 50 mg/kg ISIS 147764 (SEQ ID No: 109) for six weeks.
as §3

[6] = Serum glucose levels, high fat fed mice, 6 week study; settings: study termination, saline control 300 mg/dL
Procedure: as §1
as §2, with “glucose” for “cholesterol and triglyceride”
At study termination, animals were sacrificed 48 hours after the final injections and evaluated for serum glucose levels. […] Mice treated with atorvastatin at a daily oral dose of 20 mg/kg had serum glucose levels of 215 mg/dL.

GTCCCTGAAGATGTCAATGC (2'-MOE gapmer with phosphorothioates, pattern not given here) [ISIS 147764, 2′-MOE gapmer phosphorothioate oligonucleotide to mouse apolipoprotein B]
Percent Inhibition of cholesterol levels ([1]; 5 mg/kg, 0 weeks): 0%
Percent Inhibition of cholesterol levels ([1]; 5 mg/kg, 2 weeks): 5%
Percent Inhibition of cholesterol levels ([1]; 5 mg/kg, 6 weeks): 10%
triglycerides ([1]; 5 mg/kg): 125 mg/dL
serum cholesterol ([1]; 5 mg/kg): 225 mg/dL
Percent Inhibition of cholesterol levels ([1]; 25 mg/kg, 0 weeks): 0%
Percent Inhibition of cholesterol levels ([1]; 25 mg/kg, 2 weeks): 12%
Percent Inhibition of cholesterol levels ([1]; 25 mg/kg, 6 weeks): 45%
triglycerides ([1]; 25 mg/kg): 150 mg/dL
serum cholesterol ([1]; 25 mg/kg): 125 mg/dL
Percent Inhibition of cholesterol levels ([1]; 50 mg/kg, 0 weeks): 0%
Percent Inhibition of cholesterol levels ([1]; 50 mg/kg, 2 weeks): 20%
Percent Inhibition of cholesterol levels ([1]; 50 mg/kg, 6 weeks): 55%
triglycerides ([1]; 50 mg/kg): 85 mg/dL
serum cholesterol ([1]; 50 mg/kg): 110 mg/dL
HDL Percent Inhibition ([2]; 5 mg/kg, 0 weeks): 0%
LDL Percent Inhibition ([2]; 5 mg/kg, 0 weeks): 2%
VLDL Percent Inhibition ([2]; 5 mg/kg, 0 weeks): 0%
HDL Percent Inhibition ([2]; 5 mg/kg, 2 weeks): 5%
LDL Percent Inhibition ([2]; 5 mg/kg, 2 weeks): −30%
VLDL Percent Inhibition ([2]; 5 mg/kg, 2 weeks): 25%
HDL Percent Inhibition ([2]; 5 mg/kg, 6 weeks): 10%
LDL Percent Inhibition ([2]; 5 mg/kg, 6 weeks): −10%
VLDL Percent Inhibition ([2]; 5 mg/kg, 6 weeks): 10%
HDL Percent Inhibition ([2]; 25 mg/kg, 0 weeks): 0%
LDL Percent Inhibition ([2]; 25 mg/kg, 0 weeks): 0%
VLDL Percent Inhibition ([2]; 25 mg/kg, 0 weeks): 0%
HDL Percent Inhibition ([2]; 25 mg/kg, 2 weeks): 10%
LDL Percent Inhibition ([2]; 25 mg/kg, 2 weeks): 10%
VLDL Percent Inhibition ([2]; 25 mg/kg, 2 weeks): 30%
HDL Percent Inhibition ([2]; 25 mg/kg, 6 weeks): 45%
LDL Percent Inhibition ([2]; 25 mg/kg, 6 weeks): 55%
VLDL Percent Inhibition ([2]; 25 mg/kg, 6 weeks): −30%
lowering all categories of serum lipoproteins investigated, compared with atorvastatin ([2]; 50 mg/kg): to a greater extent than atorvastatin
HDL Percent Inhibition ([2]; 50 mg/kg, 0 weeks): 0%
LDL Percent Inhibition ([2]; 50 mg/kg, 0 weeks): 0%
VLDL Percent Inhibition ([2]; 50 mg/kg, 0 weeks): 0%
HDL Percent Inhibition ([2]; 50 mg/kg, 2 weeks): 10%
LDL Percent Inhibition ([2]; 50 mg/kg, 2 weeks): 40%
VLDL Percent Inhibition ([2]; 50 mg/kg, 2 weeks): 40%
HDL Percent Inhibition ([2]; 50 mg/kg, 6 weeks): 50%
LDL Percent Inhibition ([2]; 50 mg/kg, 6 weeks): 90%
VLDL Percent Inhibition ([2]; 50 mg/kg, 6 weeks): 15%
changes in liver enzyme levels [3]: No significant changes
Liver Enzyme Levels AST ([3]; 5 mg/kg): 50 IU/L
Liver Enzyme Levels ALT ([3]; 5 mg/kg): 48 IU/L
Liver Enzyme Levels AST ([3]; 25 mg/kg): 60 IU/L
Liver Enzyme Levels ALT ([3]; 25 mg/kg): 59 IU/L
Liver Enzyme Levels AST ([3]; 50 mg/kg): 85 IU/L
Liver Enzyme Levels ALT ([3]; 50 mg/kg): 87 IU/L
mRNA Percent Change (apolipoprotein B mRNA [4]; high fat fed (60% kcal fat) C57BL/6 mice): −87%
mRNA Percent Change (apolipoprotein B mRNA [4]; lean C57BL/6 mice): −73%
mRNA Percent Inhibition (apolipoprotein B mRNA [5]; 5 mg/kg i.p. every three days): 2%
mRNA Percent Inhibition (apolipoprotein B mRNA [5]; 25 mg/kg i.p. every three days): 42%
mRNA Percent Inhibition (apolipoprotein B mRNA [5]; 50 mg/kg i.p. every three days): 70%
serum glucose levels ([6]; 5 mg/kg): 225 mg/dL
serum glucose levels ([6]; 25 mg/kg): 190 mg/dL
serum glucose levels ([6]; 50 mg/kg): 180 mg/dL
